In patent US20040048870A1, “Composition for the prevention and treatment of migraine headaches” (priority 2002, published 2004):

Experiments:
migraine headaches = test: patient history of earlier medication (headache questionnaire prior to institution of therapy); assay type: in vivo, human; settings: before therapy; for relief of acute pain by abortive agent: Example 1 patient; for success and side effects of earlier medication: Example 2 patient
Excerpt: There were no accompanying autonomic symptoms. […] The patient was not exposed to xanthines.

migraine [1] = settings: 400 mg oral riboflavin once a day; at four months; cited from earlier work
migraine [2] = settings: 600 mg magnesium orally versus placebo; cited from earlier work
[3] = tested on: headaches in patients with low serum levels of ionized magnesium; settings: intravenous infusion of one gram of magnesium; cited from earlier work

## CC(=O)Nc1ccc(O)cc1 [acetaminophen]
Migraine headaches
  relief of acute pain by abortive agent: some, but incomplete, relief

## Cc1cc2nc3c(=O)[nH]c(=O)nc-3n(C[C@H](O)[C@H](O)[C@H](O)CO)c2cc1C [riboflavin, Riboflavin]
Migraine [1]
  number of days the patients experienced migraine attacks: statistically significant decrease

## CC(C)Cc1ccc(C(C)C(=O)O)cc1 (stereo not shown) [ibuprofen]
Migraine headaches
  relief of acute pain by abortive agent: some, but incomplete, relief

## [Mg+2] [magnesium]
Migraine [2]
  duration of the attacks: decreased in the magnesium group, but not significantly
  frequency of attacks: significant reduction
  intensity of the attacks: decreased in the magnesium group, but not significantly
[3]
  headache relief: relieved headaches

## CC(=O)Oc1ccccc1C(=O)O [aspirin]
Migraine headaches
  relief of acute pain by abortive agent: some, but incomplete, relief

## CNS(=O)(=O)Cc1ccc2[nH]cc(CCN(C)C)c2c1 [Imitrex]
Migraine headaches
  success and side effects of earlier medication: varying success with varying side effects

## CCOC(=O)C1(c2ccccc2)CCN(C)CC1 [Demerol]
Migraine headaches
  success and side effects of earlier medication: varying success with varying side effects
